The values below come from US12421252B2, “Spiro (isobenzofuranazetidine) compounds for the treatment of autoimmune disease” (Hoffmann-La Roche Inc., priority 2020, dated 2025).

In one series the target is T1, hTLR9 (Homo sapiens, UniProt Q9NR96).
T1 sequence (Q9NR96 26-1032): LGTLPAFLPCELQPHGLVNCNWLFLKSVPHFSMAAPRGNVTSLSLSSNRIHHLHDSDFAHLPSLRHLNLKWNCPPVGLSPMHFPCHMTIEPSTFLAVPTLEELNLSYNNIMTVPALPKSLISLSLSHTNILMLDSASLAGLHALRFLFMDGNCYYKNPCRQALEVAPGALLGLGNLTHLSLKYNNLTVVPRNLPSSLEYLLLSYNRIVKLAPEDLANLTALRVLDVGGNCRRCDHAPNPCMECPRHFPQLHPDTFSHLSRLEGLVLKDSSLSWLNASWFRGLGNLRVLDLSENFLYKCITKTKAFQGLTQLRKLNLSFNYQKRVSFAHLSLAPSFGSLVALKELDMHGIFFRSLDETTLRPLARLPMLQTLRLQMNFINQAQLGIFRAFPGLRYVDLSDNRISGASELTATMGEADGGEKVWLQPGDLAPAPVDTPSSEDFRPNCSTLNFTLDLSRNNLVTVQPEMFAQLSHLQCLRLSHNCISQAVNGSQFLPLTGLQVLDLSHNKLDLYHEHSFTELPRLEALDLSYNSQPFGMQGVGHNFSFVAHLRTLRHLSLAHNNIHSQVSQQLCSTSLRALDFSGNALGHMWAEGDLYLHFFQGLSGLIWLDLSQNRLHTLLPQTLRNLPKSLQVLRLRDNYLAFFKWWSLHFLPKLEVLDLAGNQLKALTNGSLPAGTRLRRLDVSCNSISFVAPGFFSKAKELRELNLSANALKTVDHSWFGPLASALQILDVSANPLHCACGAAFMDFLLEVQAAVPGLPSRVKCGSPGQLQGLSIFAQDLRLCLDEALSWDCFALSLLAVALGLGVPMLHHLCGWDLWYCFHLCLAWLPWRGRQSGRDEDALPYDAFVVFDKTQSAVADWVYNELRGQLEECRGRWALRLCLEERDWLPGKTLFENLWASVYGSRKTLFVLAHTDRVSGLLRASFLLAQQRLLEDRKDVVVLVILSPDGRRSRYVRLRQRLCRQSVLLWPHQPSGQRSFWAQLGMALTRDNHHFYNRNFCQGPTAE
Description: HEK293-Blue-hTLR-9 cells assay. In kind it is cell-based. The settings on record: HEK293-Blue-hTLR9 cells, ODN2006 stimulation, 20 hrs, SEAP reporter; read-out: HEK/hTLR9 IC50. From the text: HEK293-Blue-hTLR-9 cells assay: A stable HEK293-Blue-hTLR-9 cell line was purchased from InvivoGen (Cat. #: hkb-htlr9, San Diego, California, USA). These cells were originally designed for studying the stimulation of human TLR9 by monitoring the activation of NF-κB. A SEAP (secreted embryonic alkaline phosphatase) reporter gene was placed under the control of the IFN-β minimal promoter fused to five NF-κB and AP-1-binding sites. The SEAP was induced by activating NF-κB and AP-1 via stimulating HEK-Blue hTLR9 cells with TLR9 ligands. Therefore the reporter expression was declined by TLR9 antagonist under the stimulation of a ligand, such as ODN2006 (Cat. #: tlrl-2006-1, Invivogen, San Diego, California, USA), for incubation of 20 hrs. The cell culture supernatant SEAP reporter activity was determined using QUANTI-Blue™ kit (Cat. #: rep-qb1, Invivogen, San Diego, California, USA) at a wavelength of 640 nm, a detection medium that turns purple or blue in the presence of alkaline phosphatase.
HEK293-Blue-hTLR9 cells were incubated at a density of 250,000˜450,000 cells/mL in a volume of 170 μL in a 96-well plate in Dulbecco's Modified Eagle's medium (DMEM) containing 4.5 g/L glucose, 50 U/mL penicillin, […], 2 mM L-glutamine, 10% (v/v) heat-inactivated fetal bovine serum with addition of 20 μL test compound in a serial dilution in the presence of final DMSO at 1% and 10 μL of 20 uM ODN2006 in above DMEM, perform incubation under 37° C. in a CO2 incubator for 20 hrs. Then 20 μL of the supernatant from each well was incubated with 180 μL Quanti-blue substrate solution at 37° C. for 2 h and the absorbance was read at 620-655 nm using a spectrophotometer. The signaling pathway that TLR9 activation leads to downstream NF-κB activation has been widely accepted, and therefore similar reporter assay was modified for evaluating TLR9 antagonist.

A further series addresses T2, CYP3A4 (Homo sapiens, UniProt P08684).
T2 construct: tissue BD-Gentest 452117; host or cells: human liver microsomes
Nature of the series: CYP inhibition assay in human liver microsome, CYP3A4. In kind it is in vitro ADME. The settings on record: percentage inhibition, substrate Midazolam 5 μM, <0: not or weak inhibitor. As to the method: (§1) This is a high throughput screening assay used for assessment of reversible inhibition of CYP2C9, CYP2D6, and CYP3A4 activity of test compounds in human liver microsome (HLM) in early discovery stage.
(§2) Procedure 10 mM DMSO stock solutions of test compounds were diluted in DMSO to generate 2 mM intermediate stock solution. 250 nL of intermediate stock solution were transferred in duplicate into 3 separate 384 well microtitre plates (assay-ready plates). A mixture of HLM and each substrate was made up. 45 μL of HLM substrate mix was then transferred to each well of an assay ready plate and mixed. The negative (solvent) and positive controls (standard inhibitor for each CYP) were included in each assay ready plate. The assay ready plate was warmed to 37° C. in an incubator over 10 minutes. 5 μL pre-warmed NADPH regenerating system was added to each incubation well to start the reaction. Final incubation volume was 50 μL. The assay plate then was placed back in the 37° C. incubator. After incubation (10 minutes for CYP2D6) for 5 minutes, incubates were quenched by addition of 50 μL 100% acetonitrile containing internal standards (400 ng/mL 13C6-4′-OH-Diclofenac, 20 ng/mL D3-Dextrorphan and 20 ng/mL D4-1′OH-Midazolam). The supernatants were collected for RapidFire/MS/MS analysis.
(§3) RapidFire online solid phase extraction/sample injection system (Agilent) coupled with API4000 triple quadrupole mass spectrometer (AB Sciex) were used for sample analysis. The mobile phase composed of acetonitrile and water supplemented with 0.1% formic acid. A C4 solid phase extraction cartridge is used for sample separation. MS detection is achieved in positive ion MRM mode.
(§4) Data analysis Peak areas for substrate, metabolite and internal standard are determined using the RapidFire integrator software (version 3.6.12009.12296). Peak area ratios (PAR) of metabolite and internal standard (stable-labelled metabolite) are then calculated. The measurement window for each experiment is then defined: PAR (0% activity)=average PAR for all incubations containing concentrated inhibitor; Par (100% activity)=average PAR for all incubations containing no inhibitor (DMSO controls); % Activity (test inhibitor)=[PAR (test inhibitor)-PAR (0% activity)]/[PAR (100% activity)-PAR (0% activity)]; % Inhibition (test inhibitor)=100-% Activity (test inhibitor).
A general note: Liver microsomes are vesicles of endoplasmic reticulum, rich in cytochrome P450 enzymes.

Another series has as its target T3, CYP2D6 (Homo sapiens, UniProt P10635).
T3 construct: tissue BD-Gentest 452117; host or cells: human liver microsomes
Nature of the series: CYP inhibition assay in human liver microsome, CYP2D6. In kind it is in vitro ADME. The conditions noted are these: percentage inhibition, substrate Dextromethorphan 5 μM, <0: not or weak inhibitor. As to the method:
as §1, §2, §3, §4

Each structure is given as a SMILES string. pIC50: −log10 of the molar value.

T3 sequence (P10635 whole entry): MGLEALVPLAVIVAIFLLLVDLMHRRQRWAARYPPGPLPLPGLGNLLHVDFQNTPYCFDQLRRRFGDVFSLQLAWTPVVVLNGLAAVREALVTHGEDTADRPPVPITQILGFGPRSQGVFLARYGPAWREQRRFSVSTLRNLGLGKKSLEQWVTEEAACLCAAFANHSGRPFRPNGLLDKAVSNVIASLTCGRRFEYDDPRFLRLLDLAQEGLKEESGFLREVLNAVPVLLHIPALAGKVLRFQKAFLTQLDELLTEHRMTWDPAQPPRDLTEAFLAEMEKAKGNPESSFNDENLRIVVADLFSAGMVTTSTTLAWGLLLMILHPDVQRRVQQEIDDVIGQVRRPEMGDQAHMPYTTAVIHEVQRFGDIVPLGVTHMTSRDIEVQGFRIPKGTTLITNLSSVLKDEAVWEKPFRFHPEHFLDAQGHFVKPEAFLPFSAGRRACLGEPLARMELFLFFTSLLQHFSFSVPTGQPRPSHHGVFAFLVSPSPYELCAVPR
T2 sequence (P08684 whole entry): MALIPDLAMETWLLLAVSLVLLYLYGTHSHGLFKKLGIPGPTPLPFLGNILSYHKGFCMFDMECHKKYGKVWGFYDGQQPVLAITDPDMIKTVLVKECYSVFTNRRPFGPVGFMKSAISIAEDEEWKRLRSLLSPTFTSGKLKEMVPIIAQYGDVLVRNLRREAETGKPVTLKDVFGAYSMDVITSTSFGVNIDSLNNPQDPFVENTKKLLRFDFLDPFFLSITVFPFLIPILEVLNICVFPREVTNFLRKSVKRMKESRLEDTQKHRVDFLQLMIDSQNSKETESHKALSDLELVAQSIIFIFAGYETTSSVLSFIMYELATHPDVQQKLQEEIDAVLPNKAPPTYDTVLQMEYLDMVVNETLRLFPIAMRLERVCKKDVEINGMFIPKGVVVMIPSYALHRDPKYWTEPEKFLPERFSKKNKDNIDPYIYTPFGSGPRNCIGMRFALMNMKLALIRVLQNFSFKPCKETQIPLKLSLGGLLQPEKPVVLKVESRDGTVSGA

`C[C@@H]1CN(c2ccc(C#N)n3nccc23)C[C@H](CN2CC3(C2)OCc2cc(N4CC5(CNCCO5)C4)ccc23)O1` [Example 7, 4-[(2R,6S)-2-methyl-6-[[6-(5-oxa-2,8-diazaspiro[3.5]nonan-2-yl)spiro[1H-isobenzofuran-3,3′-azetidine]-1′-yl]methyl]morpholin-4-yl]pyrazolo[1,5-a]pyridine-7-carbonitrile]: the pIC50 at hTLR9 is 7.17. Further, the “CYP (%) 3A4” value at CYP3A4 is reported as 16.5%. The “CYP (%) 2D6” value at CYP2D6 was −2%.
For `[2H]c1ccc2c(N3C[C@H](CN4CC5(C4)OCc4cc(N6C[C@H]7NCCO[C@@H]7C6)ccc45)O[C@H](C)C3)ccc(C#N)c2n1` [Example 17, 5-[(2S,6R)-2-[[6-[(4aR,7aR)-3,4,4a,5,7,7a-hexahydro-2H-pyrrolo[3,4-b][1,4]oxazin-6-yl]spiro[1H-isobenzofuran-3,3′-azetidine]-1′-yl]methyl]-6-methyl-morpholin-4-yl]-2-deuterio-quinoline-8-carbonitrile], on hTLR9, the pIC50 was 7.49. Moreover, at CYP3A4, the “CYP (%) 3A4” value turned out to be 14%. In addition, the “CYP (%) 2D6” value at CYP2D6 is given as 18.5%.
On to `[2H]c1ccc2c(N3C[C@H](CN4CC5(C4)OCc4cc(N6CC(N)C6)cnc45)O[C@H](C)C3)ccc(C#N)c2n1` [Example 20, 5-[(2S,6R)-2-[[3-(3-aminoazetidin-1-yl)spiro[5H-furo[3,4-b]pyridine-7,3′-azetidine]-1′-yl]methyl]-6-methyl-morpholin-4-yl]-2-deuterio-quinoline-8-carbonitrile], for which, at hTLR9, the pIC50 was 7.49. In addition, on CYP3A4, the “CYP (%) 3A4” value is recorded as 40.5%. Moreover, the “CYP (%) 2D6” value on CYP2D6 is on record as 13%.
For `[2H]c1ccc2c(N3C[C@H](CN4CC5(C4)OCc4cc(N6CC(C)(N)C6)cnc45)O[C@H](C)C3)ccc(C#N)c2n1` [Example 21, 5-[(2S,6R)-2-[[3-(3-amino-3-methyl-azetidin-1-yl)spiro[5H-furo[3,4-b]pyridine-7,3′-azetidine]-1′-yl]methyl]-6-methyl-morpholin-4-yl]-2-deuterio-quinoline-8-carbonitrile], in that order: 7.26, 12.5% and 5%.
For `C[C@@H]1CN(c2ccc(C#N)n3ncc(F)c23)C[C@H](CN2CC3(C2)OCc2cc(N4CC(C)(N)C4)ncc23)O1` [Example 24, 4-[(2S,6R)-2-[[6-(3-amino-3-methyl-azetidin-1-yl)spiro[1H-furo[3,4-c]pyridine-3,3′-azetidine]-1′-yl]methyl]-6-methyl-morpholin-4-yl]-3-fluoro-pyrazolo[1,5-a]pyridine-7-carbonitrile], in that order: 7.07, −0.5% and 3.5%.
Regarding `[2H]c1ccc2c(N3C[C@H](CN4CC5(C4)OCc4cc(N6C[C@H]7NCCO[C@@H]7C6)ncc45)O[C@H](C)C3)ccc(C#N)c2n1` [Example 28, 5-[(2S,6R)-2-[[6-[(4aR,7aR)-3,4,4a,5,7,7a-hexahydro-2H-pyrrolo[3,4-b][1,4]oxazin-6-yl]spiro[1H-furo[3,4-c]pyridine-3,3′-azetidine]-1′-yl]methyl]-6-methyl-morpholin-4-yl]-2-deuterio-quinoline-8-carbonitrile], the pIC50 at hTLR9 is 6.80.
For `[2H]c1ccc2c(N3C[C@H](CN4CC5(C4)OCc4cc(N6C[C@@H](N)[C@H](OC)C6)cnc45)O[C@H](C)C3)ccc(C#N)c2n1` [Example 31, 5-[(2S,6R)-2-[[3-[(3R,4R)-3-amino-4-methoxy-pyrrolidin-1-yl]spiro[5H-furo[3,4-b]pyridine-7,3′-azetidine]-1′-yl]methyl]-6-methyl-morpholin-4-yl]-2-deuterio-quinoline-8-carbonitrile], the pIC50 on hTLR9 is 7.10.
`[2H]c1ccc2c(N3C[C@H](CN4CC5(C4)OCc4cc(N6CC(N)C6)ncc45)O[C@H](C)C3)ccc(C#N)c2n1` [Example 32, 5-[(2S,6R)-2-[[6-(3-aminoazetidin-1-yl)spiro[1H-furo[3,4-c]pyridine-3,3′-azetidine]-1′-yl]methyl]-6-methyl-morpholin-4-yl]-2-deuterio-quinoline-8-carbonitrile]: the pIC50 at hTLR9 was 6.61.
Same read-out and setting: next, `C[C@@H]1CN(c2ccc(C#N)n3ncc(F)c23)C[C@H](CN2CC3(C2)OCc2cc(N4CC(C)(N)C4)cnc23)O1` [Example 33, 4-[(2S,6R)-2-[[3-(3-amino-3-methyl-azetidin-1-yl)spiro[5H-furo[3,4-b]pyridine-7,3′-azetidine]-1′-yl]methyl]-6-methyl-morpholin-4-yl]-3-fluoro-pyrazolo[1,5-a]pyridine-7-carbonitrile]: 6.64.
